Values after ≈ are worked out from the molar mass of the structure shown. Blank lines part the entries; values can stand above or below the compound they belong to.
Experiments:
[1] = in vitro; conditions: human, hepatocytes
[2] = in vitro; conditions: human, plasma, PPB
[3] = physchem; conditions: octan-1-ol/water, pH 7.4, LogD7.4
[4] = in vitro; conditions: human
[5] = physchem; conditions: pH 7.4 buffer
[6] = in vitro; conditions: SD, HW or BN, rat, plasma
[7] = in vitro; conditions: hepatocytes

hepatocyte CLint [1]: 17.4 µL/min/1e6 cells
Compound: O=C(O)CC[C@@H](Cc1ccc(OCc2ccccc2)cc1)NC(=O)CCCCCCc1ccccc1

hepatocyte CLint [1]: 12.9 µL/min/1e6 cells
Compound: Clc1ccc(Cn2c(-c3nn[nH]n3)cc3ccccc32)cc1Cl

hepatocyte CLint [1]: 46.8 µL/min/1e6 cells
Compound: Nc1c(-c2ccccc2)nc(Cl)nc1-c1ccccc1

hepatocyte CLint [1]: 15.5 µL/min/1e6 cells
Compound: O=C(O)C1CSC(c2ccccc2Cl)N1C(=O)c1ccc(Cl)cc1 (configuration not stated)

hepatocyte CLint [1]: 36.3 µL/min/1e6 cells
Compound: Cc1cc(C)nc(Nc2cccc(C(F)(F)F)c2)n1

hepatocyte CLint [1]: 43.6 µL/min/1e6 cells
Compound: COCCOc1cc(-c2cccc3c(=O)cc(N4CCOCC4)oc23)ccc1NC(=O)CN1CCOCC1

hepatocyte CLint [1]: 5.5 µL/min/1e6 cells
Compound: O=C(CN1CCOCC1)Nc1ccc(-c2cccc3c(=O)cc(N4CCOCC4)oc23)cc1OCCN1CCCC1

hepatocyte CLint [1]: 4.88 µL/min/1e6 cells
Compound: COc1ncccc1-c1cccc2c(N)c3c(nc12)CN(C1CCC1)C3=O

fraction unbound at 5 h [2]: 0.142 | logD [3]: 1.79 | microsomal CLint ([4]; liver microsomes): 42 µL/min/mg | solubility thermodynamic [5]: 0.6 µM (≈ 0.298 µg/mL) | fraction unbound at 5 h [6]: 0.114 | hepatocyte CLint [7]: 38 µL/min/1e6 cells
Compound: O=C1NC(=O)C(c2cnc3ccccn23)=C1c1cn2c3c(cccc13)CN(C(=O)N1CCOCC1)CC2

solubility thermodynamic [5]: 2.2 µM (≈ 1.05 µg/mL) | hepatocyte CLint [1]: 24 µL/min/1e6 cells
Compound: COc1cc(C2CCN(C(C)=O)CC2)ccc1Nc1ncc(Cl)c(-c2cnc3ccccn23)n1

solubility thermodynamic [5]: 25.1 µM (≈ 12 µg/mL) | hepatocyte CLint [1]: 13.8 µL/min/1e6 cells
Compound: COc1cc(N2CC3CNCC(C2)O3)ccc1Nc1ncc(Cl)c(-c2cnc3ccccn23)n1

hepatocyte CLint [1]: 12.6 µL/min/1e6 cells
Compound: COc1cc(N2CCN(C(=O)[C@@H](C)O)CC2)ccc1Nc1ncc(Cl)c(-c2cnc3ccccn23)n1

fraction unbound at 5 h [2]: 0.062 | logD [3]: 2.62 | microsomal CLint ([4]; microsomes): 26.3 µL/min/mg | solubility thermodynamic [5]: 129 µM (≈ 43.5 µg/mL) | fraction unbound at 5 h [6]: 0.0488 | hepatocyte CLint [7]: 6 µL/min/1e6 cells
Compound: Cc1ccc(N2CC(COc3ccc(-c4noc(C)n4)cc3)C2)nn1

fraction unbound at 5 h [2]: 0.0014 | logD [3]: 1.68 | microsomal CLint ([4]; liver microsomes): 38 µL/min/mg | solubility thermodynamic [5]: 1410 µM (≈ 639 µg/mL) | fraction unbound at 5 h [6]: 0.0214 | hepatocyte CLint [7]: 12 µL/min/1e6 cells
Compound: Cc1ccc(S(=O)(=O)Nc2c(C(=O)NC3CCCCC3)c(C)nn2-c2ccccc2)cc1

fraction unbound at 5 h [2]: 0.0082 | logD [3]: 1.46 | microsomal CLint ([4]; microsomes): 27 µL/min/mg | fraction unbound at 5 h [6]: 0.0335 | hepatocyte CLint [7]: 18 µL/min/1e6 cells
Compound: Cc1ccc(S(=O)(=O)Nc2c(C(=O)NCC(C)(C)C)c(C)nn2-c2ccccc2)cc1

fraction unbound at 5 h [2]: 0.0127 | logD [3]: 1.21 | microsomal CLint ([4]; liver microsomes): 31 µL/min/mg | fraction unbound at 5 h [6]: 0.0457 | hepatocyte CLint [7]: 7 µL/min/1e6 cells
Compound: Cc1ccc(S(=O)(=O)Nc2c(C(=O)NC(C)C(C)(C)C)c(C)nn2-c2ccccc2)cc1 (configuration not stated)

fraction unbound at 5 h [2]: 0.0081 | logD [3]: 1.2 | microsomal CLint ([4]; liver microsomes): 42 µL/min/mg | solubility thermodynamic [5]: 1000 µM (≈ 455 µg/mL) | fraction unbound at 5 h [6]: 0.0374 | hepatocyte CLint [7]: 8 µL/min/1e6 cells
Compound: Cc1ccc(S(=O)(=O)Nc2c(C(=O)N[C@H](C)C(C)(C)C)c(C)nn2-c2ccccc2)cc1

fraction unbound at 5 h [2]: 0.0142 | logD [3]: 0.93 | microsomal CLint ([4]; liver microsomes): 17 µL/min/mg | fraction unbound at 5 h [6]: 0.0274 | hepatocyte CLint [7]: 18 µL/min/1e6 cells
Compound: Cc1ccc(S(=O)(=O)Nc2c(C(=O)N[C@@H](C)C(C)(C)C)c(C)nn2CC(F)(F)F)cc1

Compound: COCCC(C)n1nc(C)c(C(=O)N[C@@H](C)C(C)(C)C)c1NS(=O)(=O)c1ccc(C)cc1 (some centres not stated)
fraction unbound at 5 h [2]: 0.101 | logD [3]: 0.78 | microsomal CLint ([4]; microsomes): 3.9 µL/min/mg | fraction unbound at 5 h [6]: 0.276 | hepatocyte CLint [7]: 9.9 µL/min/1e6 cells

fraction unbound at 5 h [2]: 0.0532 | logD [3]: 1.29 | microsomal CLint ([4]; liver microsomes): 25 µL/min/mg | solubility thermodynamic [5]: 912 µM (≈ 437 µg/mL) | fraction unbound at 5 h [6]: 0.0661 | hepatocyte CLint [7]: 5 µL/min/1e6 cells
Compound: Cc1ccc(S(=O)(=O)Nc2c(C(=O)N[C@@H](C)C(C)(C)C)c(C)nn2C2CCSCC2)cc1

hepatocyte CLint [1]: 38.9 µL/min/1e6 cells
Compound: O=C(O)C1(c2ccc(-c3ccc(Cl)c(Cl)c3)c(F)c2)CC1

logD [3]: 3.3 | hepatocyte CLint [1]: < 3 µL/min/1e6 cells
Compound: CCN(C(=O)c1ccc(-c2ccc(Cl)cc2)o1)c1ccc(N2CCNCC2)cc1

solubility thermodynamic [5]: 112 µM (≈ 42.9 µg/mL) | hepatocyte CLint [1]: 3.72 µL/min/1e6 cells
Compound: NC(=O)c1ccn2c(-c3ccccc3)c(-c3ccc(C4(N)CCC4)cc3)nc2c1

hepatocyte CLint [1]: < 3 µL/min/1e6 cells
Compound: NC1(c2ccc(-c3ncc4cccn4c3-c3ccccc3)cc2)CCC1

hepatocyte CLint [1]: > 150 µL/min/1e6 cells
Compound: NC1(c2ccc(-c3ncc4cnccc4c3-c3ccccc3)cc2)CCC1

hepatocyte CLint [1]: 19.5 µL/min/1e6 cells
Compound: NC1(c2ccc(-c3ncc4cccnc4c3-c3ccccc3)cc2)CCC1

hepatocyte CLint [1]: 10.2 µL/min/1e6 cells
Compound: NC1(c2ccc(-c3c(-c4ccccc4)ccc4ccnn34)cc2)CCC1

hepatocyte CLint [1]: < 3 µL/min/1e6 cells
Compound: NC1(c2ccc(-c3c(-c4ccccc4)ccn4ncnc34)cc2)CCC1

hepatocyte CLint [1]: 3.31 µL/min/1e6 cells
Compound: Cn1cnc2c(-c3ccc(C4(N)CCC4)cc3)c(-c3ccccc3)ccc21

hepatocyte CLint [1]: 52.5 µL/min/1e6 cells
Compound: Cc1ccc(-c2cccc(-c3nn[nH]n3)c2)cc1

logD [3]: 0.3 | hepatocyte CLint [1]: 8.13 µL/min/1e6 cells
Compound: N#Cc1cccc(-c2cccc(C(=O)O)c2)c1

hepatocyte CLint [1]: 10.5 µL/min/1e6 cells
Compound: O=C1NC(=O)C(=CC=Cc2ccccc2)S1

logD [3]: 3.9 | hepatocyte CLint [1]: 10 µL/min/1e6 cells
Compound: O=C(NCc1ccc(OC(F)(F)F)cc1)C1c2ccccc2C(=O)N1CC1CC(F)(F)C1 (configuration not stated)

hepatocyte CLint [1]: < 3 µL/min/1e6 cells
Compound: Nc1ncc(-c2ccc(S(=O)(=O)N3CCCC3)cc2)nc1C(=O)Nc1cccnc1

hepatocyte CLint [1]: < 3 µL/min/1e6 cells
Compound: CS(=O)(=O)C1(c2cc(N3CCOCC3)nc(-c3cccc4[nH]ncc34)n2)CC1
